Experimental data taken from PubChem BioAssay (NCI).
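Results reflect a 48-hour exposure of cells in 96-well plates to compound at five concentrations. TGI: concentration producing complete growth inhibition.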

Legend:
Test in all cases: NCI-60 cell line screen, 48 h
[1] = tested on: HOP-62 NSCLC
[2] = tested on: HL-60(TB) leukemia
[3] = tested on: BT-549 breast
[4] = tested on: SNB-75 CNS
[5] = tested on: RPMI-8226 leukemia
[6] = tested on: HOP-92 NSCLC
[7] = tested on: SN12C renal
[8] = tested on: U251 CNS
[9] = tested on: MDA-MB-231 breast
[10] = tested on: OVCAR-3 ovarian
[11] = tested on: HT29 colon
[12] = tested on: SF-295 CNS
[13] = tested on: MDA-MB-435
[14] = tested on: TK-10 renal
[15] = tested on: A549 NSCLC
[16] = tested on: SK-MEL-5 melanoma
[17] = tested on: SK-MEL-28 melanoma
[18] = tested on: UO-31 renal
[19] = tested on: DU-145 prostate
[20] = tested on: M14 melanoma
[21] = tested on: LOX IMVI melanoma
[22] = tested on: SNB-19 CNS
[23] = tested on: NCI-H23 lung
[24] = tested on: NCI-H226 lung
[25] = tested on: NCI-H522 lung
[26] = tested on: SK-OV-3 ovarian
[27] = tested on: OVCAR-4 ovarian
[28] = tested on: EKVX NSCLC
[29] = tested on: SW-620 colon
[30] = tested on: IGROV1 ovarian
[31] = tested on: MDA-N
[32] = tested on: HS 578T breast
[33] = tested on: K-562 leukemia
[34] = tested on: ACHN renal
[35] = tested on: OVCAR-8 ovarian
[36] = tested on: HCC-2998 colon
[37] = tested on: HCT-15 colon
[38] = tested on: MCF7 breast
[39] = tested on: NCI-H460 lung
[40] = tested on: UACC-62 melanoma
[41] = tested on: COLO 205 colon
[42] = tested on: T-47D breast
[43] = tested on: UACC-257 melanoma
[44] = tested on: HCT-116 colon
[45] = tested on: NCI/ADR-RES ovarian
[46] = tested on: 786-0 renal
[47] = tested on: MOLT-4 leukemia
[48] = tested on: PC-3 prostate
[49] = tested on: A498 renal
[50] = tested on: KM12 colon
[51] = tested on: SF-268 CNS
[52] = tested on: OVCAR-5 ovarian
[53] = tested on: MALME-3M melanoma
[54] = tested on: RXF 393 renal
[55] = tested on: CAKI-1 renal
[56] = tested on: CCRF-CEM leukemia

Measured: TGI

CC(N)C(C)Cc1ccccc1 (configuration not stated)
not listed: [56]
> 100 µM: all other assays above

O=c1[nH]c(=O)n(C2CC(O)C(CO)O2)cc1OCCCc1ccccc1 (configuration not stated)
not listed: [6] | [29] | [36] | [49]
> 100 µM: all other assays above
